Measurements: patent EP3952872B1, “CARBAMOYL CYCLOHEXANE DERIVATIVES FOR TREATING AUTISM SPECTRUM DISORDER” (Richter Gedeon Nyrt., priority 2019, dated 2020)
Entries after “also recorded” stand apart in the source; their conditions may differ. Read-outs that look alike come from different tables or passages of the source.

Experiments:
[1] = test system: prenatally valproate-treated rats; assay: maternal deprivation-induced ultrasonic vocalization in rat pups, prenatal valproate model; type: in vivo, Wistar rats; settings: acute p.o.; effect at 0.003, 0.03 and 0.1 mg/kg (0.01 mg/kg also tested); Figure 1
Method: Ultrasonic call counts are recorded for 10 min.

[2] = test system: prenatally valproate-treated rats; assay: social play behavior, prenatal valproate model; type: in vivo, Wistar rats; settings: p.o. daily for 8 days; 0.003-0.1 mg/kg, significant at 0.1 mg/kg; male offspring; Figure 3
Method: Offspring are housed according to standard laboratory conditions until time of behavioral testing. Animals are housed in groups of 4 in conventional cages and maintained at 22-24°C on a standard 12 hour light/dark cycle, with food and water available ad libitum. After investigational drug treatment, offspring are examined behaviorally in tests relevant for the assessment of autistic behavior. These tests include maternal deprivation-induced ultrasonic vocalization in rat pups, social play, social preference and the open field. […] At postnatal day 30, following 8 days treatment with the test compound, prenatally VPA-treated rats are evaluated for juvenile play behavior. The test is carried out in a novel test arena with pairs of animals from the same treatment group over a 15-min trial. Animals are scored for play activity measured by duration of social play behavior. Statistical analysis employs one-way ANOVA and the post hoc Dunnett test.

[3] = test system: prenatally valproate-treated rats; assay: open field assay, prenatal valproate model; type: in vivo, Wistar rats; settings: p.o. daily for 9 days, 0.003-0.1 mg/kg, male offspring
Method: Offspring are housed according to standard laboratory conditions until time of behavioral testing. Animals are housed in groups of 4 in conventional cages and maintained at 22-24°C on a standard 12 hour light/dark cycle, with food and water available ad libitum. After investigational drug treatment, offspring are examined behaviorally in tests relevant for the assessment of autistic behavior. These tests include maternal deprivation-induced ultrasonic vocalization in rat pups, social play, social preference and the open field. […] At postnatal day 31-32, animals are scored for locomotor activity and exploratory behavior in a 10-min trial in an open field test arena after 9-day oral treatment with the test compound. Activity is analysed for readouts of repetitive/stereotypic behaviors such as total distance moved and frequency of circling behavior. Statistical analysis employs one-way ANOVA and the post hoc Dunnett test.

dopamine D2 receptor [4] = target: T1, dopamine D2 receptor (Homo sapiens, UniProt P14416); settings: literature; cited from earlier work
[5] = target: T2, serotonin 5-HT2B receptor (Homo sapiens, UniProt P41595); settings: literature; cited from earlier work
[6] = target: T3, serotonin 5-HT1A receptor (Homo sapiens, UniProt P08908); settings: cited from earlier work
T3 sequence (P08908 1-422): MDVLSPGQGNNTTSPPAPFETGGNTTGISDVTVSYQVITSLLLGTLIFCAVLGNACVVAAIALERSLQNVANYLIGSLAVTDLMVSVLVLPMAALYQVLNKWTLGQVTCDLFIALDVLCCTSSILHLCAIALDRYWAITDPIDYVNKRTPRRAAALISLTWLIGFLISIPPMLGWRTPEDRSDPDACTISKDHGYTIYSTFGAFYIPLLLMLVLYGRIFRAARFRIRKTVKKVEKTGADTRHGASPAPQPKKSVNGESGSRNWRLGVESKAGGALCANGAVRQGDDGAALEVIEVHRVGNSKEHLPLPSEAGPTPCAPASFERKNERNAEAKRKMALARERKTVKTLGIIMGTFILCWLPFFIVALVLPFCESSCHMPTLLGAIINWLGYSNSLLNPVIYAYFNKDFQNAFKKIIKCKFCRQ

dopamine D2L receptor = dopamine D2L receptor (Homo sapiens, UniProt P14416); assay: dopamine D2L receptor affinity; type: binding
dopamine D2S receptor = dopamine D2S receptor (Homo sapiens, UniProt P14416); assay: dopamine D2S receptor affinity; type: binding
[7] = target: T2, serotonin 5-HT2B receptor; assay: serotonin 5-HT2B receptor affinity; type: binding
dopamine D2 receptor [8] = target: T1, dopamine D2 receptor; assay: functional activity at dopamine D2 receptor; type: biochemical; settings: Compound 2
[9] = target: T2, serotonin 5-HT2B receptor; assay: functional activity at serotonin 5-HT2B receptor; type: biochemical; settings: Compound 2
[10] = target: T3, serotonin 5-HT1A receptor; settings: Compound 2
[11] = target: T3, serotonin 5-HT1A receptor; assay: biochemical

T2 sequence (P41595 whole entry): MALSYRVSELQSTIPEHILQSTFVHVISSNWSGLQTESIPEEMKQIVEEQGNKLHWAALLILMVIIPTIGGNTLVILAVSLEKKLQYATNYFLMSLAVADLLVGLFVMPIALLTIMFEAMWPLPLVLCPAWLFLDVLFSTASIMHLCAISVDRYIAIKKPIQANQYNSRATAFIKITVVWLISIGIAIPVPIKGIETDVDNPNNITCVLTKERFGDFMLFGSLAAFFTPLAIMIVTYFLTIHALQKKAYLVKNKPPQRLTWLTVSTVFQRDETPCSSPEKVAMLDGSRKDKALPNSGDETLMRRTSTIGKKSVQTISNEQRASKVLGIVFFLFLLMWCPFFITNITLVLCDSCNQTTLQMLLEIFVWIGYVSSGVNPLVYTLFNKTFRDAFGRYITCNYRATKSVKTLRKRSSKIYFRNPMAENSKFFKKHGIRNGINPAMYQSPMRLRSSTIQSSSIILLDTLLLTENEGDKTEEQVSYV
T1 sequence (P14416 whole entry): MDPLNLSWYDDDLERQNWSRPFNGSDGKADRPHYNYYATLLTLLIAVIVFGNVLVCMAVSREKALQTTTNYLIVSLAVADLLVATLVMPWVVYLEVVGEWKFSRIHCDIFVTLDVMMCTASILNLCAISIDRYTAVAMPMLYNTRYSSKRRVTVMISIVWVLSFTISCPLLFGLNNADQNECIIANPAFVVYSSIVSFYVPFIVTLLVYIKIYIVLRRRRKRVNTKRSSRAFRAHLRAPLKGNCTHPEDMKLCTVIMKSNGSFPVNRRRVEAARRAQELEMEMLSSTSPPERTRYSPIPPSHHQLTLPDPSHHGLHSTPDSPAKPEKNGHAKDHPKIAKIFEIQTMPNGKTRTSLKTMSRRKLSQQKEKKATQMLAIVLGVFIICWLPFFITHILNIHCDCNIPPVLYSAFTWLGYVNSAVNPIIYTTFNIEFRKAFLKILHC
Chain of dopamine D2S receptor (P14416 1-414 isoform P14416-2): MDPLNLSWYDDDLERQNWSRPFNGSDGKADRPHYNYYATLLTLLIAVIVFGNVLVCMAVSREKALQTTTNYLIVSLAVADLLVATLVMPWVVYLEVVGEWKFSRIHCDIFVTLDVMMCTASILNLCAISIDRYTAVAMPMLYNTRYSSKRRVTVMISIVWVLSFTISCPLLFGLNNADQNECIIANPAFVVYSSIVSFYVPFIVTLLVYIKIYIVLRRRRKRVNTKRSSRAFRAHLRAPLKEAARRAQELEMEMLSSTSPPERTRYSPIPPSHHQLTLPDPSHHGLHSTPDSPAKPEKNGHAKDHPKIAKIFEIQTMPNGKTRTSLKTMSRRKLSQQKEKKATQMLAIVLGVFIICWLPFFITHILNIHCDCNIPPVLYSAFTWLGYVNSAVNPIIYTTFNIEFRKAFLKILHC
Chain of dopamine D2L receptor (P14416 whole entry): as the sequence (P14416 whole entry) above

Compound	isolation-induced vocalizations (number of USV vocalizations) [1]	social play deficit (time spent playing) [2]	excessive motility / hyperactivity (distance travelled) ([3]; significant at 0.1 mg/kg, Figure 4)	excessive circling behavior (number of 360-degree turns) ([3]; significant at all doses, Figure 5)	functional character at the dopamine D2 receptor (dopamine D2 receptor [4])	functional character at the serotonin 5-HT2B receptor [5]	intrinsic activity at the serotonin 5-HT1A receptor ([6]; literature (Heusler et al. 2016; Kiss et al. 2010)) [%]	functional character at the serotonin 5-HT1A receptor ([6]; literature)	Ki (dopamine D2L receptor) [pM]	Ki (dopamine D2S receptor) [pM]	Ki [7] [pM]	functional character at the dopamine D2 receptor (dopamine D2 receptor [8])	functional character at the serotonin 5-HT2B receptor [9]	functional character at the serotonin 5-HT1A receptor [10]	Ki [11] [pM]
CN(C)C(=O)N[C@H]1CC[C@H](CCN2CCN(c3cccc(Cl)c3Cl)CC2)CC1 [cariprazine, trans-N-[4-[2-[4-(2,3-dichlorophenyl)piperazin-1-yl]ethyl]cyclohexyl]-N',N'-dimethylurea]	statistically significant; also recorded: fully reversed	statistically significant; also recorded: partially nevertheless, significantly reversed	fully reversed	statistically significant; also recorded: fully reversed	partial agonist	full antagonist	38	weak partial agonist	–	–	–	–	–	–	–
O=C(N[C@H]1CC[C@H](CCN2CCN(c3cccc(Cl)c3Cl)CC2)CC1)N1CCOCC1 [Compound 2, trans-N-(4-{2-[4-(2,3-dichloro-phenyl)-piperazine-1-yl]-ethyl}-cyclohexyl)-morpholine-4 carboxamide]	–	–	–	–	–	–	–	–	400	520	1110	partial agonist	full antagonist	weak partial agonist	5730
